{
  "source": "patent US20200296959A1",
  "about": "“DISINFECTION AND/OR STERILIZATION OF AGRICULTURAL CROPS” (priority 2019, published 2020)",
  "system": "Bacillus atrophaeus spore strips",
  "test": "Microbial decontamination barrel: sterilization of Steritest biological indicator spore strips",
  "description": "Barrel Setup: All cycles were performed using a 48.8 gallon steel barrel with an airtight lid sealed with a rubber gasket.\nBarrels were fitted with an SEC Sensor to monitor EO concentration throughout the cycle\nThe unit utilizes AN 7916 Anprolene gas release ampoules, which contain approximately 17.6 g of EO. The number of ampoules can be adjusted according to load weight.\nBarrels were fitted with an observation chamber containing a chemical integrator, referred to a dosimeter. This allows sterilization progress to be monitored in real time with no disruption to the cycle.\nAn external recirculating abator cartridge was attached to the lid of the barrel to neutralize EO when the cycle is complete.\nHumidichips, a Madgetech Datalogger, and a Steritest biological indicator including a Dosimeter and a Bacillus atrophaeus spore strip, were placed in the bottom of the barrel. An AN 7916 EO 17.6 g ampule was activated then placed in the bottom of the barrel.\nFurther, paper represents a reasonable proxy for agricultural materials such as hemp and marijuana, as all of these materials are all cellulosic materials.\nIn this example, the barrel was loaded with 150 lbs of paper. Humidichips, a Madgetech Datalogger, and a Steritest were placed in the middle of the load. The Barrel was filled to the top with cloth materials (which are also cellulosic materials). […]",
  "data": [
    {"smiles": "C1CO1", "note": "[ethylene oxide]", "values": [
      {"measurement": "ethylene oxide levels sufficient to kill biological surrogates (Bacillus atrophaeus) included with each load", "setting": "microbial decontamination barrel, each load", "result": "sufficient to kill 10^6 biological surrogates"},
      {"measurement": "sterilization of Bacillus atrophaeus spore strips contained in the Steritest", "setting": "seven 2-4 day cycles, 48.8 gallon barrel, 17.6 g EO ampoule, room temperature (around 20° C.), empty and paper loads", "result": "successfully sterilized"}
    ]}
  ]
}
